The values that follow come from paper PMC9926475 (ACS chemical neuroscience, 2022).

The conditions of data set [1]: i.p. administration to mice, ref [19], cited from earlier work.
Data set [2] deals with male mice. Put plainly: Forced swim test immobility time 24 h after i.p. treatment. The data set is classed as in vivo, mouse.
In data set [3] the test system is rats. The settings on record: 10 mg/kg, i.p., ref [26]; cited from earlier work.
Data set [4] is described as follows: Pharmacokinetic studies in plasma and brain of mice after i.p. injection. To be noted: for Cmax (mean ± SEM) Brain / B:P ratio (brain to plasma AUC ratio) / t1/2 Brain (terminal half-life) / t1/2 Plasma (terminal half-life): i.p. 5 mg/kg; for Cmax (mean ± SEM) Brain: normalized to free base dose. It is filed as in vivo, mouse.
For data set [5] the following is noted: i.p.; ref [4]; cited from earlier work.
In data set [6] the test system is mice. The settings on record: i.p., cited from earlier work.
Data set [7] has as its target N-methyl-D-aspartate receptor (NMDAR). The settings on record: read-out: Ki, potency to bind or inhibit NMDARs; ref [4],[19],[31]-[35]; cited from earlier work.
Where [8] appears, read: standard t-test, F female, M male, NS not statistically different.

What is called Ki is the dissociation constant of the complex between target and ligand, obtained from inhibition or displacement.

For `N[C@@]1(c2ccccc2Cl)CCC[C@@H](O)C1=O` [(2R,6R)-HNK, (2R,6R)-hydroxynorketamine], the “Time of peak plasma levels” value in data set [1] (plasma collected at 2.5 and 5 min post-injection) is 2.5 min. For the same compound, in data set [1], the “Time of peak brain levels” value is 5 min. Besides, the “Minimal effective dose to reduce immobility time in the forced swim test” value in data set [2] (24 h after injection) came to 10 mg/kg. Further, in data set [2] (tested range up to 100 mg/kg), the “Shape of dose response curve for forced swim test immobility” value is “did not demonstrate U-shaped dose responses”. Further, the “Reversal of learned helplessness” value in data set [3] is reported as “reversed learned helplessness”. For the same compound, in data set [4] (female CD-1 mice), the “Cmax (mean ± SEM) Brain” value is 530 ± 17.2 ng/g•mg/kg. Moreover, in data set [4] (female mice), the “B:P ratio (brain to plasma AUC ratio)” value turned out to be 1.3, the “t1/2 Brain (terminal half-life)” value was determined as 34 min and the “t1/2 Plasma (terminal half-life)” value worked out at 36 min. Moreover, in data set [4] (male CD-1 mice), the “Cmax (mean ± SEM) Brain” value is listed as 380 ± 19.3 ng/g•mg/kg. Moreover, in data set [4] (male mice), the “B:P ratio (brain to plasma AUC ratio)” value stood at 1.3, the “t1/2 Brain (terminal half-life)” value is on record as 34 min and the “t1/2 Plasma (terminal half-life)” value was 38 min. Besides, in data set [4] (setting [8]), the “Sex-dependent difference: Brain Total exposure (AUC)” value is on record as “F > M” and the “Sex-dependent difference: Plasma Total exposure (AUC)” value is recorded as “F > M”. For the same compound, in data set [5], the “Lowest dose reducing escape failures in the learned helplessness test” value was 3 mg/kg. In data set [6] (ref [4]), the “Lowest dose reducing forced swim test immobility time” value is listed as 5 mg/kg. Moreover, in data set [6] (mice, 10 mg/kg, ref [17]), the “Effect on forced swim test immobility time” value is recorded as “reduced forced swim test immobility time”. In addition, the inhibitory constant (Ki) in data set [7] was over 100 µM.
